The results in this text go back to patent publication US8518945B2, “Pyrrolopyrazine kinase inhibitors” (Hoffmann-La Roche Inc., priority 2010, dated 2013).

For this experiment, the target named is T1, h-jak3(810-1124) (JAK3: Recombinant human kinase domain) (Homo sapiens, UniProt P52333).
T1 construct: jak3(810- 1124)-sf9-c; made in house; host or cells: Sf9
T1 sequence (P52333 810-1124): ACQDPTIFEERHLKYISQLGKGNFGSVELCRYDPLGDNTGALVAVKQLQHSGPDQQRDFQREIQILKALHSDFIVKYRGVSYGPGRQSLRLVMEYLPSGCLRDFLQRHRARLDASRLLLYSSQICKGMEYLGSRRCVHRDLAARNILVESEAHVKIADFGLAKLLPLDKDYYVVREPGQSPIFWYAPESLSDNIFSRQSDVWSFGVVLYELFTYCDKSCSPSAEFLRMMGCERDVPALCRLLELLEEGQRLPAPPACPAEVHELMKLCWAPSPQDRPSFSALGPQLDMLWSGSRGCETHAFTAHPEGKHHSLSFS
Briefly: Determination of IC50 of Janus Kinase (JAK) inhibition: JAK3 radioactive end-point 33P-ATP kinase assay. It is filed as biochemical. The note with it: no additive; ATP 1.5 uM, peptide 50 uM, 20 minutes, room temperature; read-out: Ic50 h-jak3(810-1124)-sf9-c: no additive.
Take `N#CC1CCN(C(=O)[C@H](NC(=O)c2c[nH]c3ncc(C4CC4)nc23)C2(C(F)(F)F)CC2)CC1` [Example I-47, 2-Cyclopropyl-5H-pyrrolo[2,3-b]pyrazine-7-carboxylic acid [(R)-2-(4-cyano-piperidin-1-yl)-2-oxo-1-(1-trifluoromethyl-cyclopropyl)-ethyl]-amide]: the 50% inhibitory concentration (IC50) (usually the point on the concentration scale where inhibition reaches its midpoint) was 1.04 nM. The value for `C[C@@H](NC(=O)c1c[nH]c2ncc(C3CC3)nc12)C(=O)N1CC[C@H](F)C1` [Example I-22, 2-Cyclopropyl-5H-pyrrolo[2,3-b]pyrazine-7-carboxylic acid [(R)-2-((S)-3-fluoro-pyrrolidin-1-yl)-1-methyl-2-oxo-ethyl]-amide] was 5.34 nM.

For `CC(C)(C)[C@@H](NC(=O)c1c[nH]c2ncc(OC3CCCC3)nc12)C(=O)N1CCC(C#N)CC1` [Example I-92, 2-Cyclopentyloxy-5H-pyrrolo[2,3-b]pyrazine-7-carboxylic acid [(R)-1-(4-cyano-piperidine-1-carbonyl)-2,2-dimethyl-propyl]-amide], the IC50 is 10.9 nM. Turning to `CCn1cc(-c2cnc3[nH]cc(C(=O)N[C@@H](C(=O)N4CCC(C)(O)CC4)C(C)(C)C)c3n2)cn1` [Example I-140, 2-(1-Ethyl-1H-pyrazol-4-yl)-5H-pyrrolo[2,3-b]pyrazine-7-carboxylic acid [(R)-1-(4-hydroxy-4-methyl-piperidine-1-carbonyl)-2,2-dimethyl-propyl]-amide], the IC50 was found to be 0.68 nM. With `C[C@@H](NC(=O)c1c[nH]c2ncc(-c3cc(C4=CCCC4)ccn3)nc12)C(=O)N1CC(C#N)C1` [Example I-113, 2-(4-Cyclopent-1-enyl-pyridin-2-yl)-5H-pyrrolo[2,3-b]pyrazine-7-carboxylic acid [(R)-2-(3-cyano-azetidin-1-yl)-1-methyl-2-oxo-ethyl]-amide], the concentration for half-maximal inhibition (IC50) was determined as 3.71 nM. For the molecule `CCn1cc(-c2cnc3[nH]cc(C(=O)N[C@@H](C(=O)N4CC(C)(O)C4)C4CC4)c3n2)cn1` [Example I-148, 2-(1-Ethyl-1H-pyrazol-4-yl)-5H-pyrrolo[2,3-b]pyrazine-7-carboxylic acid [(R)-1-cyclopropyl-2-(3-hydroxy-3-methyl-azetidin-1-yl)-2-oxo-ethyl]-amide], the IC50 is 1.98 nM.

For `O=C(N[C@@H](C(=O)N1CCCC1)C1CCCCC1)c1c[nH]c2ncc(C3CC3)nc12` [Example I-37, 2-Cyclopropyl-5H-pyrrolo[2,3-b]pyrazine-7-carboxylic acid ((R)-1-cyclohexyl-2-oxo-2-pyrrolidin-1-yl-ethyl)-amide], the IC50 turned out to be 1.8 nM.

With `CC(=O)N1CCN(c2ccc(-c3cnc4[nH]cc(C(=O)N[C@@H](C(=O)N5CC(C#N)C5)C5CC5)c4n3)cc2)CC1` [Example I-161, 2-[4-(4-Acetyl-piperazin-1-yl)-phenyl]-5H-pyrrolo[2,3-b]pyrazine-7-carboxylic acid [(R)-2-(3-cyano-azetidin-1-yl)-1-cyclopropyl-2-oxo-ethyl]-amide], the IC50 is at most 0.32 nM. With `CC1(O)CCN(C(=O)[C@H](NC(=O)c2c[nH]c3ncc(C4CC4)nc23)C(C)(C)C)CC1` [Example I-73, 2-Cyclopropyl-5H-pyrrolo[2,3-b]pyrazine-7-carboxylic acid [(R)-1-(4-hydroxy-4-methyl-piperidine-1-carbonyl)-2,2-dimethyl-propyl]-amide], the IC50 came out at 3.34 nM.

As for `C[C@@H](NC(=O)c1c[nH]c2ncc(-c3cccc(C(=O)NCC4CC4)c3)nc12)C(=O)N1CC(C#N)C1` [Example I-112, 2-[3-(Cyclopropylmethyl-carbamoyl)-phenyl]-5H-pyrrolo[2,3-b]pyrazine-7-carboxylic acid [(R)-2-(3-cyano-azetidin-1-yl)-1-methyl-2-oxo-ethyl]-amide], the IC50 was 0.97 nM. On to `CC(=O)N1CCN(C(=O)[C@H](NC(=O)c2c[nH]c3ncc(C4CC4)nc23)C(C)(C)C)CC1` [Example I-57, 2-Cyclopropyl-5H-pyrrolo[2,3-b]pyrazine-7-carboxylic acid [(R)-1-(4-acetyl-piperazine-1-carbonyl)-2,2-dimethyl-propyl]-amide], for which the IC50 was at most 0.32 nM. Take `CC(C)(C)[C@@H](NC(=O)c1c[nH]c2ncc(-c3cccc(N4CCCC4)c3)nc12)C(=O)N1CCC(C#N)CC1` [Example I-51, 2-(3-Pyrrolidin-1-yl-phenyl)-5H-pyrrolo[2,3-b]pyrazine-7-carboxylic acid [(R)-1-(4-cyano-piperidine-1-carbonyl)-2,2-dimethyl-propyl]-amide]: the IC50 is 111 nM. The value for `N#CC1CN(C(=O)[C@H](NC(=O)c2c[nH]c3ncc(C4CC4)nc23)C2CCOCC2)C1` [Example I-136, 2-Cyclopropyl-5H-pyrrolo[2,3-b]pyrazine-7-carboxylic acid [(R)-2-(3-cyano-azetidin-1-yl)-2-oxo-1-(tetrahydro-pyran-4-yl)-ethyl]-amide] was 7.11 nM; that for `CC(C)(C)[C@@H](NC(=O)c1c[nH]c2ncc(OC3CCCCC3)nc12)C(=O)N1CCC(C#N)CC1` [Example I-90, 2-Cyclohexyloxy-5H-pyrrolo[2,3-b]pyrazine-7-carboxylic acid [(R)-1-(4-cyano-piperidine-1-carbonyl)-2,2-dimethyl-propyl]-amide] was 9.73 nM.

Regarding `COc1ccnc2cc(-c3cnc4[nH]cc(C(=O)N[C@@H](C(=O)N5CC(C#N)C5)C5CC5)c4n3)sc12` [Example I-99, 2-(7-Methoxy-thieno[3,2-b]pyridin-2-yl)-5H-pyrrolo[2,3-b]pyrazine-7-carboxylic acid [(R)-2-(3-cyano-azetidin-1-yl)-1-cyclopropyl-2-oxo-ethyl]-amide], the half-inhibitory concentration (IC50) stood at 0.78 nM.

On to `N#CC1CCN(C(=O)[C@H](NC(=O)c2c[nH]c3ncc(-c4cn(C5CCCC5)cn4)nc23)C2CC2)CC1` [Example I-121, 2-(1-Cyclopentyl-1H-imidazol-4-yl)-5H-pyrrolo[2,3-b]pyrazine-7-carboxylic acid [(R)-2-(4-cyano-piperidin-1-yl)-1-cyclopropyl-2-oxo-ethyl]-amide], for which the IC50 is 1.67 nM. Regarding `C[C@@H](NC(=O)c1c[nH]c2ncc(-c3cc(-n4cccc4)ccn3)nc12)C(=O)N1CC(C#N)C1` [Example I-153, 2-(4-Pyrrol-1-yl-pyridin-2-yl)-5H-pyrrolo[2,3-b]pyrazine-7-carboxylic acid [(R)-2-(3-cyano-azetidin-1-yl)-1-methyl-2-oxo-ethyl]-amide], the IC50 is 9.02 nM. Consider `O=C(N[C@@H](C(=O)N1CC2(COC2)C1)C1CC1)c1c[nH]c2ncc(C3CC3)nc12` [Example I-84, 2-Cyclopropyl-5H-pyrrolo[2,3-b]pyrazine-7-carboxylic acid [(R)-1-cyclopropyl-2-(2-oxa-6-aza-spiro[3.3]hept-6-yl)-2-oxo-ethyl]-amide], for which the 50% inhibitory concentration (IC50) turned out to be 0.75 nM. Turning to `CCn1cc(-c2cnc3[nH]cc(C(=O)N[C@@H](C(=O)N4CCC(O)(C(F)(F)F)CC4)C4CC4)c3n2)cn1` [Example I-146, 2-(1-Ethyl-1H-pyrazol-4-yl)-5H-pyrrolo[2,3-b]pyrazine-7-carboxylic acid [(R)-1-cyclopropyl-2-(4-hydroxy-4-trifluoromethyl-piperidin-1-yl)-2-oxo-ethyl]-amide], the IC50 is 0.38 nM. Turning to `N#CC1CCN(C(=O)[C@H](NC(=O)c2c[nH]c3ncc(-c4cc(OCC5CC5)ccn4)nc23)C2CC2)CC1` [Example I-129, 2-(4-Cyclopropylmethoxy-pyridin-2-yl)-5H-pyrrolo[2,3-b]pyrazine-7-carboxylic acid [(R)-2-(4-cyano-piperidin-1-yl)-1-cyclopropyl-2-oxo-ethyl]-amide], the IC50 was found to be 1.18 nM. With `O=C(N[C@@H](C(=O)N1CCS(=O)(=O)CC1)C1CC1)c1c[nH]c2ncc(C3CC3)nc12` [Example I-88, 2-Cyclopropyl-5H-pyrrolo[2,3-b]pyrazine-7-carboxylic acid [(R)-1-cyclopropyl-2-(1,1-dioxo-1λ^6-thiomorpholin-4-yl)-2-oxo-ethyl]-amide], the IC50 worked out at 1.23 nM. Regarding `Cn1cc(-c2cnc3[nH]cc(C(=O)N[C@@H](C(=O)N4CC5(COC5)C4)C4CC4)c3n2)cn1` [Example I-85, 2-(1-Methyl-1H-pyrazol-4-yl)-5H-pyrrolo[2,3-b]pyrazine-7-carboxylic acid [(R)-1-cyclopropyl-2-(2-oxa-6-aza-spiro[3.3]hept-6-yl)-2-oxo-ethyl]-amide], the IC50 was found to be 0.85 nM.

In the case of `C[C@@H](NC(=O)c1c[nH]c2ncc(C3CC3)nc12)C(=O)N1CCC(C#N)C1` (stereo partly drawn) [Example I-14, 2-Cyclopropyl-5H-pyrrolo[2,3-b]pyrazine-7-carboxylic acid [(R)-2-(3-cyano-pyrrolidin-1-yl)-1-methyl-2-oxo-ethyl]-amide], the IC50 was determined as 8.02 nM. Turning to `CC(C)(C)[C@@H](NC(=O)c1c[nH]c2ncc(-c3cnc(Cl)s3)nc12)C(=O)N1CCC(C#N)CC1` [Example I-156, 2-(2-Chloro-thiazol-5-yl)-5H-pyrrolo[2,3-b]pyrazine-7-carboxylic acid [(R)-1-(4-cyano-piperidine-1-carbonyl)-2,2-dimethyl-propyl]-amide], the IC50 was 5.97 nM. `CNC(=O)c1ccnc(-c2cnc3[nH]cc(C(=O)N[C@H](C)C(=O)N4CC(C#N)C4)c3n2)c1` [Example I-155, 2-(4-Methylcarbamoyl-pyridin-2-yl)-5H-pyrrolo[2,3-b]pyrazine-7-carboxylic acid [(R)-2-(3-cyano-azetidin-1-yl)-1-methyl-2-oxo-ethyl]-amide]: the 50% inhibitory concentration (IC50) was determined as 10.5 nM. The value for `CC1CCCN1C(=O)[C@@H](C)NC(=O)c1c[nH]c2ncc(C3CC3)nc12` (stereo partly drawn) [Example I-16, 2-Cyclopropyl-5H-pyrrolo[2,3-b]pyrazine-7-carboxylic acid [(R)-1-methyl-2-(2-methyl-pyrrolidin-1-yl)-2-oxo-ethyl]-amide] was 72.5 nM; that for `Cn1cc(-c2cnc3[nH]cc(C(=O)N[C@@H](C(=O)N4CC[C@@H](C#N)C4)C4CC4)c3n2)cn1` [Example I-82, 2-(1-Methyl-1H-pyrazol-4-yl)-5H-pyrrolo[2,3-b]pyrazine-7-carboxylic acid [(R)-2-((R)-3-cyano-pyrrolidin-1-yl)-1-cyclopropyl-2-oxo-ethyl]-amide] was at most 0.32 nM.
